Measurements taken from ChEMBL document CHEMBL1649457, “Antibiotic susceptibility of Waddlia chondrophila in Acanthamoeba castellanii amoebae” (2009).
In brackets after ≈: the same amount, converted by molar mass.

Experiments:
[1] = Antimicrobial activity against Waddlia chondrophila ATCC VR-1470 infected in Vero cells; format: functional, Waddlia chondrophila WSU 86-1044
Chlamydia trachomatis = test: Antimicrobial activity against Chlamydia trachomatis infected in Vero cells; format: functional
Chlamydophila psittaci = test: Antimicrobial activity against Chlamydophila psittaci infected in Vero cells; format: functional; conditions: Chlamydia psittaci
[2] = Antimicrobial activity against Waddlia chondrophila ATCC VR-1470 infected in Acanthamoeba castellanii amoeba cells; format: functional, Waddlia chondrophila WSU 86-1044
[3] = system: Parachlamydia acanthamoebae; test: Antimicrobial activity against Parachlamydia acanthamoebae infected in Acanthamoeba castellanii amoeba cells; format: functional
Chlamydia pneumoniae = test: Antimicrobial activity against Chlamydophila pneumoniae infected in Vero cells; format: functional
[4] = Antimicrobial activity against Waddlia chondrophila 2032/99 infected in Acanthamoeba castellanii amoeba cells; format: functional

| Structure (SMILES) | MIC [1] [µg/mL] | MIC (Chlamydia trachomatis) [µg/mL] | MIC (Chlamydophila psittaci) [µg/mL] | MIC [2] [µg/mL] | MIC [3] [µg/mL] | MIC (Chlamydia pneumoniae) [µg/mL] | MIC [4] [µg/mL] |
| --- | --- | --- | --- | --- | --- | --- | --- |
| O=C(O)c1cn(C2CC2)c2cc(N3CCNCC3)c(F)cc2c1=O [CIPROFLOXACIN] | > 16 | 0.5 (≈ 1.51 µM) | 1 (≈ 3.02 µM) | > 16 | > 16 | 1 (≈ 3.02 µM) | – |
| CO/N=C(\C(=O)N[C@@H]1C(=O)N2C(C(=O)O)=C(CSc3nc(=O)c(O)nn3C)CS[C@H]12)c1csc(N)n1 [CEFTRIAXONE] | > 32 | > 32 | – | > 32 | > 32 | – | – |
| CC1(C)S[C@@H]2[C@H](NC(=O)[C@H](N)c3ccc(O)cc3)C(=O)N2[C@H]1C(=O)O [AMOXICILLIN] | – | – | – | – | > 32 | – | – |
| C[C@H]1c2cccc(O)c2C(=O)C2=C(O)[C@]3(O)C(=O)C(C(N)=O)=C(O)[C@@H](N(C)C)[C@@H]3[C@@H](O)[C@@H]21.O [DOXYCYCLINE] | 0.25 | 0.03 | 0.03 | 4 | 0.5 | 0.03 | 1 |
| CC[C@H]1OC(=O)[C@H](C)[C@@H](O[C@H]2C[C@@](C)(OC)[C@@H](O)[C@H](C)O2)[C@H](C)[C@@H](O[C@@H]2O[C@H](C)C[C@H](N(C)C)[C@H]2O)[C@](C)(O)C[C@@H](C)CN(C)[C@H](C)[C@@H](O)[C@]1(C)O [AZITHROMYCIN] | 0.25 (≈ 0.334 µM) | 0.125 (≈ 0.167 µM) | 0.125 (≈ 0.167 µM) | 0.06 (≈ 0.0801 µM) | – | 0.06 (≈ 0.0801 µM) | 0.06 (≈ 0.0801 µM) |
| CC1COc2c(N3CCN(C)CC3)c(F)cc3c(=O)c(C(=O)O)cn1c23 (stereo not drawn) [OFLOXACIN] | > 16 | 0.5 (≈ 1.38 µM) | 0.5 (≈ 1.38 µM) | > 16 | > 16 | 0.5 (≈ 1.38 µM) | – |
| CC1(C)S[C@@H]2[C@H](NC(=O)[C@H](N)c3ccccc3)C(=O)N2[C@H]1C(=O)O [AMPICILLIN] | > 32 | – | – | > 32 | – | > 100 | – |
